Measured values from patent US9662327B2 (AGIOS PHARMACEUTICALS, INC, priority 2011, dated 2017).

Target: IDH1 R132H (Homo sapiens (Human), UniProt O75874, R132H)
Assay: Assays for IDH1 R132H Inhibitors (NADPH/aKG, resazurin detection)
Format: biochemical
Conditions: IDH1 R132H enzyme, Table 2; read-out: IDHR132H Activity
Protocol: Assays were conducted in a volume of […] assay buffer (150 mM NaCl, 10 mM MgCl2, 20 mM Tris pH 7.5, 0.03% bovine serum albumin) as follows in a standard 384-well plate: To 25 ul of substrate mix (8 uM NADPH, 2 mM aKG), 1 μl of test compound was added in DMSO. […] The reaction was incubated for 50 minutes at room temperature, then 25 μl of detection mix (30 μM resazurin, […]) was added and the mixture further incubated for 5 minutes at room temperature.

IDH1 R132H, sequence (O75874 whole entry R132H): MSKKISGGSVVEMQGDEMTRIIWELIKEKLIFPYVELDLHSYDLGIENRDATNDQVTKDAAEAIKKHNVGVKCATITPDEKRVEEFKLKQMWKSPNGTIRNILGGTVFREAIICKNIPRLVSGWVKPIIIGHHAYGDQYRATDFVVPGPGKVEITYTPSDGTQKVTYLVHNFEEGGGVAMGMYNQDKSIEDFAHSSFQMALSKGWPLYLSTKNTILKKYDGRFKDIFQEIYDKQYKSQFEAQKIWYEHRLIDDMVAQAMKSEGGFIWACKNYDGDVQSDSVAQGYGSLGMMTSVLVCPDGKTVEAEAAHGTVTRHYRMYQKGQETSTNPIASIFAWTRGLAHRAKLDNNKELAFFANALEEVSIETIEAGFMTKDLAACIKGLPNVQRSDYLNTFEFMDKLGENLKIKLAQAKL

Compound	IC50
CC(C)c1nc(N2CCN(C(=O)Cc3cc(F)cc(F)c3)[C@H](C)C2)c(C#N)c2c1COC(C)(C)C2 [Compound 159, (R)-6-(4-(2-(3,5-difluorophenyl)acetyl)-3-methylpiperazin-1-yl)-8-isopropyl-3,3-dimethyl-3,4-dihydro-1H-pyrano[3,4-c]pyridine-5-carbonitrile]	1 to 10 µM
C[C@@H]1CN(c2nc(C3CCCCC3)c3c(c2C#N)CCOC3)CCN1C(=O)c1ccoc1 [Compound 160, (R)-8-cyclohexyl-6-(4-(furan-3-carbonyl)-3-methylpiperazin-1-yl)-3,4-dihydro-1H-pyrano[3,4-c]pyridine-5-carbonitrile]	1 to 10 µM
CC(C)c1nc(N2CCN(C(=O)Cc3cccc(Cl)c3)[C@H](C)C2)c(C#N)c2c1COC(C)(C)C2 [Compound 161, (R)-6-(4-(2-(3-chlorophenyl)acetyl)-3-methylpiperazin-1-yl)-8-isopropyl-3,3-dimethyl-3,4-dihydro-1H-pyrano[3,4-c]pyridine-5-carbonitrile]	1 to 10 µM
C[C@@H]1CN(c2nc(C3CCCCC3)c3c(c2C#N)CCOC3)CCN1C(=O)c1ccco1 [Compound 162, (R)-8-cyclohexyl-6-(4-(furan-2-carbonyl)-3-methylpiperazin-1-yl)-3,4-dihydro-1H-pyrano[3,4-c]pyridine-5-carbonitrile]	1 to 10 µM
Cc1occc1C(=O)N1CCN(c2nc(C(C)C)c3c(c2C#N)CC(C)(C)OC3)C[C@H]1C [Compound 163, (R)-8-isopropyl-3,3-dimethyl-6-(3-methyl-4-(2-methylfuran-3-carbonyl)piperazin-1-yl)-3,4-dihydro-1H-pyrano[3,4-c]pyridine-5-carbonitrile]	0.5 to 1 µM
C[C@@H]1CN(c2nc(C3CC3)c3c(c2C#N)CC(C)(C)OC3)CCN1C(=O)c1ccoc1 [Compound 164]	0.5 to 1 µM
CC(C)c1nc(N2CCN(C(=O)c3ccoc3)[C@H](C(C)C)C2)c(C#N)c2c1COC(C)(C)C2 [Compound 165, (R)-6-(4-(furan-3-carbonyl)-3-isopropylpiperazin-1-yl)-8-isopropyl-3,3-dimethyl-3,4-dihydro-1H-pyrano[3,4-c]pyridine-5-carbonitrile]	< 0.5 µM
CC(C)c1nc(N2CCN(C(=O)c3ccc(Cl)cc3Cl)[C@H](C)C2)c(C#N)c2c1COC(C)(C)C2 [Compound 166, (R)-6-(4-(2,4-dichlorobenzoyl)-3-methylpiperazin-1-yl)-8-isopropyl-3,3-dimethyl-3,4-dihydro-1H-pyrano[3,4-c]pyridine-5-carbonitrile]	1 to 10 µM
C[C@@H]1CN(c2nc(C3CC3)c3c(c2C#N)CC(C)(C)OC3)CCN1C(=O)c1ccco1 [Compound 167]	1 to 10 µM
CC1CN(c2nc(C3CCCCC3)c3c(c2C#N)CC(C)(C)OC3)CCN1C(=O)c1ccco1 (stereo not drawn) [Compound 168, 8-cyclohexyl-6-(4-(furan-2-carbonyl)-3-methylpiperazin-1-yl)-3,3-dimethyl-3,4-dihydro-1H-pyrano[3,4-c]pyridine-5-carbonitrile]	1 to 10 µM
CC1CN(c2nc(C3CCCCC3)c3c(c2C#N)CC(C)(C)OC3)CCN1C(=O)c1ccoc1 (stereo not drawn) [Compound 169, 8-cyclohexyl-6-(4-(furan-3-carbonyl)-3-methylpiperazin-1-yl)-3,3-dimethyl-3,4-dihydro-1H-pyrano[3,4-c]pyridine-5-carbonitrile]	1 to 10 µM
CC(C)c1nc(N2CCN(S(=O)(=O)c3cccs3)[C@H](C)C2)c(C#N)c2c1COC(C)(C)C2 [Compound 170, (R)-8-isopropyl-3,3-dimethyl-6-(3-methyl-4-(thiophen-2-ylsulfonyl)piperazin-1-yl)-3,4-dihydro-1H-pyrano[3,4-c]pyridine-5-carbonitrile]	1 to 10 µM
CC(C)c1nc(N2CCN(C(=O)c3ccco3)[C@H](C(C)C)C2)c(C#N)c2c1COC(C)(C)C2 [Compound 171, (R)-6-(4-(furan-2-carbonyl)-3-isopropylpiperazin-1-yl)-8-isopropyl-3,3-dimethyl-3,4-dihydro-1H-pyrano[3,4-c]pyridine-5-carbonitrile]	< 0.5 µM
CCC1CN(c2nc(C(C)C)c3c(c2C#N)CC(C)(C)OC3)CCN1C(=O)c1ccoc1 (stereo not drawn) [Compound 172, 6-(3-ethyl-4-(furan-3-carbonyl)piperazin-1-yl)-8-isopropyl-3,3-dimethyl-3,4-dihydro-1H-pyrano[3,4-c]pyridine-5-carbonitrile]	1 to 10 µM
Cc1ccoc1C(=O)N1CCN(c2nc(C(C)C)c3c(c2C#N)CC(C)(C)OC3)C[C@H]1C [Compound 173, (R)-8-isopropyl-3,3-dimethyl-6-(3-methyl-4-(3-methylfuran-2-carbonyl)piperazin-1-yl)-3,4-dihydro-1H-pyrano[3,4-c]pyridine-5-carbonitrile]	1 to 10 µM
CCC1CN(c2nc(C3CCCCC3)c3c(c2C#N)CCOC3)CCN1C(=O)c1ccco1 (stereo not drawn) [Compound 174, 8-cyclohexyl-6-(3-ethyl-4-(furan-2-carbonyl)piperazin-1-yl)-3,4-dihydro-1H-pyrano[3,4-c]pyridine-5-carbonitrile]	1 to 10 µM
CCC1CN(c2nc(C3CCCCC3)c3c(c2C#N)CCOC3)CCN1C(=O)c1ccoc1 (stereo not drawn) [Compound 175, 8-cyclohexyl-6-(3-ethyl-4-(furan-3-carbonyl)piperazin-1-yl)-3,4-dihydro-1H-pyrano[3,4-c]pyridine-5-carbonitrile]	1 to 10 µM
Cc1occc1C(=O)N1CCN(c2nc(C(C)C)c3c(c2C#N)CC(C)(C)OC3)C[C@H]1C(C)C [Compound 176, (R)-8-isopropyl-6-(3-isopropyl-4-(2-methylfuran-3-carbonyl)piperazin-1-yl)-3,3-dimethyl-3,4-dihydro-1H-pyrano[3,4-c]pyridine-5-carbonitrile]	< 0.5 µM
Cc1occc1C(=O)N1CCN(c2nc(C(C)C)c3c(c2C#N)CCOC3)C(c2ccccc2)C1 (stereo not drawn) [Compound 177, 8-isopropyl-6-(4-(2-methylfuran-3-carbonyl)-2-phenylpiperazin-1-yl)-3,4-dihydro-1H-pyrano[3,4-c]pyridine-5-carbonitrile]	1 to 10 µM
CC(C)c1nc(N2CCN(C(=O)c3ccoc3)CC2c2ccccc2)c(C#N)c2c1COC(C)(C)C2 (stereo not drawn) [Compound 178, 6-(4-(furan-3-carbonyl)-2-phenylpiperazin-1-yl)-8-isopropyl-3,3-dimethyl-3,4-dihydro-1H-pyrano[3,4-c]pyridine-5-carbonitrile]	1 to 10 µM
Cc1occc1C(=O)N1CCN(c2nc(C(C)C)c3c(c2C#N)CC(C)(C)OC3)C(c2ccccc2)C1 (stereo not drawn) [Compound 179, 8-isopropyl-3,3-dimethyl-6-(4-(2-methylfuran-3-carbonyl)-2-phenylpiperazin-1-yl)-3,4-dihydro-1H-pyrano[3,4-c]pyridine-5-carbonitrile]	1 to 10 µM
CC(C)[C@@H]1CN(c2nc(C3CC3)c3c(c2C#N)CC(C)(C)OC3)CCN1C(=O)c1ccoc1 [Compound 180, (R)-8-cyclopropyl-6-(4-(furan-3-carbonyl)-3-isopropylpiperazin-1-yl)-3,3-dimethyl-3,4-dihydro-1H-pyrano[3,4-c]pyridine-5-carbonitrile]	< 0.5 µM
Cc1occc1C(=O)N1CCN(c2nc(C3CC3)c3c(c2C#N)CC(C)(C)OC3)C[C@H]1C(C)C [Compound 181]	< 0.5 µM
CC(C)[C@@H]1CN(c2nc(C3CCCCC3)c3c(c2C#N)CCOC3)CCN1C(=O)c1ccco1 [Compound 182, (R)-8-cyclohexyl-6-(4-(furan-2-carbonyl)-3-isopropylpiperazin-1-yl)-3,4-dihydro-1H-pyrano[3,4-c]pyridine-5-carbonitrile]	1 to 10 µM
